Test results taken from ChEMBL document CHEMBL1201862, “PubChem BioAssay data set” (2004).
Active and inactive are the calls of the source.

Key:
[1] = target: T1, Dual specificity protein phosphatase 6 (Rattus norvegicus, UniProt Q64346); type: functional;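 note: confirmatory in vitro dose-response testing of MKP-3 inhibition; recombinant His-tagged MKP-3 made in E. coli BL21 with OMFP substrate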
T1 sequence (Q64346 whole entry): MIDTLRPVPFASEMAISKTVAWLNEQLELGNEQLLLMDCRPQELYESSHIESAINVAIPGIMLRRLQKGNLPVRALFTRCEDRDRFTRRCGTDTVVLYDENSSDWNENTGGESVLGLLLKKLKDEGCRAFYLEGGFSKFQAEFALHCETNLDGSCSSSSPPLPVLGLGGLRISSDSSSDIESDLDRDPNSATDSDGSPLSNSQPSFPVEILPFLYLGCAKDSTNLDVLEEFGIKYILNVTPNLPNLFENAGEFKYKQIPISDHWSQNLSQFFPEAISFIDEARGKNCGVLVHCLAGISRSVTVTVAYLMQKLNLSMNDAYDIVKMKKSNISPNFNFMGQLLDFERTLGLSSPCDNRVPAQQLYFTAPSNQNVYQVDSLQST

[2] = target: T2, Tyrosine-protein phosphatase non-receptor type 7 (Homo sapiens, UniProt P35236); test: redox-dependent HePTP inhibition, mechanism study, biochemical, fluorescence (AID 2068); type: functional
T2 sequence (P35236 whole entry): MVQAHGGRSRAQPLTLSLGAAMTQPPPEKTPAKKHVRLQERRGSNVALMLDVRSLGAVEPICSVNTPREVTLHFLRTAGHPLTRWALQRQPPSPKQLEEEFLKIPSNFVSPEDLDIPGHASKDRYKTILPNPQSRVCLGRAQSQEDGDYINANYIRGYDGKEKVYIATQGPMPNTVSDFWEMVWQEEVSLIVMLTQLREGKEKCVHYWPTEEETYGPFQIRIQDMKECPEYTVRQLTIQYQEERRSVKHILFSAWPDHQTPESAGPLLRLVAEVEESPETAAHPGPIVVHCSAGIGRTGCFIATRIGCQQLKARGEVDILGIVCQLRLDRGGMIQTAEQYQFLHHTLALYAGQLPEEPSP

[3] = target: T3, Short transient receptor potential channel 4 (Mus musculus, UniProt Q9QUQ5); test: TRPC4 positive allosteric modulators, dose response, cell-based, HEK293 TRPC4/mu-opioid, Fluo-4 calcium, EC20 DAMGO (AID 434941); type: functional
T3 sequence (Q9QUQ5 whole entry): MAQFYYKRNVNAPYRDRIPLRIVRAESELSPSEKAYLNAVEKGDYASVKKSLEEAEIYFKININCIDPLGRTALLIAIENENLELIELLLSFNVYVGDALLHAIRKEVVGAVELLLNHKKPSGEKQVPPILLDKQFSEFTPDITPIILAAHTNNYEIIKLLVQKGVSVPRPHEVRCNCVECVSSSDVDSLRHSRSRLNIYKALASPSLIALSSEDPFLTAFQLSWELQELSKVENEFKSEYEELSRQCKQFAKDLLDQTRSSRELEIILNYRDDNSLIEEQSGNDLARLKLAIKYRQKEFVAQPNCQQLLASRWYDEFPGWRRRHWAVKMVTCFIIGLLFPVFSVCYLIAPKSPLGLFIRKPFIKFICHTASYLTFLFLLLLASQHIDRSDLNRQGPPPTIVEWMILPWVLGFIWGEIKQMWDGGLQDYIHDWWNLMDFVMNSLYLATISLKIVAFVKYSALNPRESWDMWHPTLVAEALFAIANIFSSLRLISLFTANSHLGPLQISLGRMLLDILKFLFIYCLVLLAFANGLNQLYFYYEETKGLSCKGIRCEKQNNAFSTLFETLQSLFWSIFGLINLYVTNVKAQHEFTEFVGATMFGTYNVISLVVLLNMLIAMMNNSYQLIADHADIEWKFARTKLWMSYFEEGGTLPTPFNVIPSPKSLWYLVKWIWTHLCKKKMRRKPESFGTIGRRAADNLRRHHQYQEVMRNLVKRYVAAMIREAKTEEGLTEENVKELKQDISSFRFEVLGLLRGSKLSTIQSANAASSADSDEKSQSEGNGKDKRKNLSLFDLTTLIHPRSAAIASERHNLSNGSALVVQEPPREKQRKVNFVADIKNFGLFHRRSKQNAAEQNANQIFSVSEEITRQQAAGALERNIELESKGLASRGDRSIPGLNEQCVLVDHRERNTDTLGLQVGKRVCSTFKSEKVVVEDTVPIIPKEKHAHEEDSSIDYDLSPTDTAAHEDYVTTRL

[4] = target: T4, Endoribonuclease toxin MazF (Escherichia coli K-12, UniProt P0AE70); test: fluorescent RNA oligo signal without MazF, dose response, counter-screen for MazEF activator project, biochemical, fluorescence, single-stranded RNase substrate (AID 588502); type: functional
T4 sequence (P0AE70 whole entry): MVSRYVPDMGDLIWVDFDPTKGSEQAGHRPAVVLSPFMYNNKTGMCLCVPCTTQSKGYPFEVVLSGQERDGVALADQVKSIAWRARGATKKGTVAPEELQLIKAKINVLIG

[5] = target: G-protein coupled receptor 35 (Homo sapiens, UniProt Q9HC97); test: GPR35 antagonists blocking zaprinast-driven arrestin recruitment, primary screen, imaging, U2OS, beta-arrestin-GFP, zaprinast agonist (AID 2058); type: functional;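 note: antagonist potency meaning inhibition of agonist-induced arrestin redistribution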
Chain of G-protein coupled receptor 35 (Q9HC97 whole entry): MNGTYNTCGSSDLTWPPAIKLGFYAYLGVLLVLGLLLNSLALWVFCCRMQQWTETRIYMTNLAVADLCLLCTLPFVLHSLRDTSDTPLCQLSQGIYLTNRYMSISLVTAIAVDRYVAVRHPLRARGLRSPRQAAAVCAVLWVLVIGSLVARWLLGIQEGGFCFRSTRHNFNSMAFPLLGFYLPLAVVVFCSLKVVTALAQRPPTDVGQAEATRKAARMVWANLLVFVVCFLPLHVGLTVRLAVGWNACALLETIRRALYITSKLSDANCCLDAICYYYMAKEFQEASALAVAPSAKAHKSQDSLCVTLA

[6] = target: Nonstructural protein 1 (Influenza A virus, UniProt Q194T2); type: functional, Influenza A virus (A/California/07/2009(H1N1))
Chain of Nonstructural protein 1 (Q194T2 whole entry): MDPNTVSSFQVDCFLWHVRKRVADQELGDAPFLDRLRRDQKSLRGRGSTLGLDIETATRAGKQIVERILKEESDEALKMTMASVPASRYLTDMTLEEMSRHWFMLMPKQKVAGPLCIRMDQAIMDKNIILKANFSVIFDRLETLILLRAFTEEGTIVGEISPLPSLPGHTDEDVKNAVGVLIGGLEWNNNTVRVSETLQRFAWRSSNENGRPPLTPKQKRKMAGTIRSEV

[7] = target: G-protein coupled receptor 55 (Homo sapiens, UniProt Q9Y2T6); test: GPR55 antagonists blocking LPI-driven arrestin recruitment, primary screen, imaging, U2OS, beta-arrestin-GFP, LPI agonist (AID 2013); type: functional;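 note: antagonist potency measured as reduced agonist-driven arrestin aggregation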
Chain of G-protein coupled receptor 55 (Q9Y2T6 whole entry): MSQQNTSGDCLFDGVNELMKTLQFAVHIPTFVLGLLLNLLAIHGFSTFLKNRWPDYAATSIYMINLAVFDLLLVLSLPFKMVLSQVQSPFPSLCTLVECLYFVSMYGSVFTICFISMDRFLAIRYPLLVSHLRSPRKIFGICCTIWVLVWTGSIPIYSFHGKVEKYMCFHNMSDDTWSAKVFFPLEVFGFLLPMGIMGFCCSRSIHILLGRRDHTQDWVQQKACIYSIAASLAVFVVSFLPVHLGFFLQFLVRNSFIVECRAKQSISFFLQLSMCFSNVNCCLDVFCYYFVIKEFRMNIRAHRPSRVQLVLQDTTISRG

[8] = target: Large T antigen (Simian virus 40, UniProt P03070); type: functional, Betapolyomavirus macacae;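 note: Confirmatory-stage PubChem screen for compounds that inhibit SV40 T antigen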
Chain of Large T antigen (P03070 whole entry): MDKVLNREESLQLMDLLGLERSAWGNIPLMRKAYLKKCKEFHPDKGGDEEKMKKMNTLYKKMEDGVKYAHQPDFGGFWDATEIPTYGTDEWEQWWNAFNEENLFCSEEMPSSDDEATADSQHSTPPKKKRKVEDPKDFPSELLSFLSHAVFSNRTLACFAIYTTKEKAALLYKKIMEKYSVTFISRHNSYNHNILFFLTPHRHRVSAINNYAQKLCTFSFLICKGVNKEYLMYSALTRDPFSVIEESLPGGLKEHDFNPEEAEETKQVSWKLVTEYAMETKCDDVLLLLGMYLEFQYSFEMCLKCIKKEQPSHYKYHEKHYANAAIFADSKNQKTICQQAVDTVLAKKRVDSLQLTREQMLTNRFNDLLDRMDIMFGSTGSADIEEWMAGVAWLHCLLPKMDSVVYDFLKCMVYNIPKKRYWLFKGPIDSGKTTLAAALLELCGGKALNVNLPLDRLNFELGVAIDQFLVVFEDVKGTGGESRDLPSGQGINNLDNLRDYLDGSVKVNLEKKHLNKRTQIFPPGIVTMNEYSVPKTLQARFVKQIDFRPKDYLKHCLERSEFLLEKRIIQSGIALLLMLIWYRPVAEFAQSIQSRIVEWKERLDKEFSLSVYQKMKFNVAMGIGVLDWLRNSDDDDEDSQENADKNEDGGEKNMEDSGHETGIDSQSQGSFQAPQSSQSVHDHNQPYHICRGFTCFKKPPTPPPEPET

[9] = target: T4, Endoribonuclease toxin MazF; test: MazF toxin RNase activators, dose response, biochemical, fluorescence, single-stranded RNA substrate, uHTS hits (AID 588481); type: functional
[10] = target: Mu-type opioid receptor (Homo sapiens, UniProt P35372); test: SAR Analysis of Agonists of the MOR Receptor using an Image-Based Assay - Set 3. [Related pubchem assays (depositor defined):AID1777, AID1785, AID1786, AID1966, AID2133, AID2136, AID2284, AID2285, AID2352]; type: functional
Chain of Mu-type opioid receptor (P35372 whole entry): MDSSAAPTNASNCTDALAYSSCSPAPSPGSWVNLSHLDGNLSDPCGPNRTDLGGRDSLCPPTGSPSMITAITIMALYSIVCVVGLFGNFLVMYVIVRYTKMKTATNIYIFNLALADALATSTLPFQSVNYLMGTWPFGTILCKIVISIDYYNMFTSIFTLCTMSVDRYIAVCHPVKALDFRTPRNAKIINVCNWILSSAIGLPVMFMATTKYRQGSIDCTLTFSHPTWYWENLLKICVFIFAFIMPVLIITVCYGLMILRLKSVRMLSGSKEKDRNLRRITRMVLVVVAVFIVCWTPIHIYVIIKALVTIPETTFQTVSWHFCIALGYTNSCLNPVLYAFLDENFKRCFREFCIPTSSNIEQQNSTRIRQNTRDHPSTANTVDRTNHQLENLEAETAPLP

[11] = target: T5, Kappa-type opioid receptor (Homo sapiens, UniProt P41145); test: KOR agonist analogs, arrestin-GFP redistribution, SAR follow-up, imaging, image-based, set 3 (AID 488833); type: functional
T5 sequence (P41145 whole entry): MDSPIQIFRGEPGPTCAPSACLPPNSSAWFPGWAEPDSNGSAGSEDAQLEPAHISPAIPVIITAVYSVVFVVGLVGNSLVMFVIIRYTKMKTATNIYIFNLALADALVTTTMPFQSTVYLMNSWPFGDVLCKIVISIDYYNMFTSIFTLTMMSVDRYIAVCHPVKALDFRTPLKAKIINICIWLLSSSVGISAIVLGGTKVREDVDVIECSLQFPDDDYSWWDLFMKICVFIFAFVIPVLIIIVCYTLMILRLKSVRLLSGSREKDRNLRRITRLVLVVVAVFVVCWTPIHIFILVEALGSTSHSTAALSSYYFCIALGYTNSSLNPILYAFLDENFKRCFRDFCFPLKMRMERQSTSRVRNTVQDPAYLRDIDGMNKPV

[12] = target: T5, Kappa-type opioid receptor; test: SAR analysis of small molecule agonists of the kappa opioid receptor via a luminescent beta-arrestin assay - Set 3. [Related pubchem assays (depositor defined):AID1777, AID1785, AID1786, AID1966, AID2133, AID2136, AID2284, AID2500]; type: functional
[13] = target: Delta-type opioid receptor (Homo sapiens, UniProt P41143); test: SAR Analysis of Agonists of the DOR Receptor using an Image-Based Assay - Set 3. [Related pubchem assays (depositor defined):AID1777, AID1786]; type: functional
Chain of Delta-type opioid receptor (P41143 whole entry): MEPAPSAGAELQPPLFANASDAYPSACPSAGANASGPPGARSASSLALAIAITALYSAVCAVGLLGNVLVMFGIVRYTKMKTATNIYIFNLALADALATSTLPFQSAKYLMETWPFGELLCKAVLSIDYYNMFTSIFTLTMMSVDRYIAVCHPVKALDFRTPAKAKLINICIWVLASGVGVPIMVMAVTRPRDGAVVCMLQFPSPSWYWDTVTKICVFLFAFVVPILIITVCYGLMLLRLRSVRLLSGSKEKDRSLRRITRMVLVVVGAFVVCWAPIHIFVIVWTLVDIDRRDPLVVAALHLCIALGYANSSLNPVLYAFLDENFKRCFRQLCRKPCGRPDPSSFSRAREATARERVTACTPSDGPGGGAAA

[14] = A Cell Based Secondary Assay To Explore Cytotoxicity of Compounds that Sensitize Mycobacterium Tuberculosis to Beta-Lactam Antibiotics.; type: functional
[15] = target: Trypsin (Sus scrofa, UniProt P00761); test: porcine trypsin inhibitors, dose response, selectivity assay for Rce1 protease inhibitor project, biochemical, quenched peptide fluorescence, cherry-pick (AID 488789)
Chain of Trypsin (P00761 whole entry): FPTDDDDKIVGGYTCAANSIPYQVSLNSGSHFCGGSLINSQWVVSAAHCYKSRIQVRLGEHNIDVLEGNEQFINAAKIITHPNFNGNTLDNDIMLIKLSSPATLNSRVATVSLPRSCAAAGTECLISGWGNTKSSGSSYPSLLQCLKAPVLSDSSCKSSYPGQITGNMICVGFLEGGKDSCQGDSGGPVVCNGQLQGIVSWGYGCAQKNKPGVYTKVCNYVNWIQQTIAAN

[16] = target: CAAX prenyl protease 2 (Saccharomyces cerevisiae S288c, UniProt Q03530); type: biochemical
Chain of CAAX prenyl protease 2 (Q03530 whole entry): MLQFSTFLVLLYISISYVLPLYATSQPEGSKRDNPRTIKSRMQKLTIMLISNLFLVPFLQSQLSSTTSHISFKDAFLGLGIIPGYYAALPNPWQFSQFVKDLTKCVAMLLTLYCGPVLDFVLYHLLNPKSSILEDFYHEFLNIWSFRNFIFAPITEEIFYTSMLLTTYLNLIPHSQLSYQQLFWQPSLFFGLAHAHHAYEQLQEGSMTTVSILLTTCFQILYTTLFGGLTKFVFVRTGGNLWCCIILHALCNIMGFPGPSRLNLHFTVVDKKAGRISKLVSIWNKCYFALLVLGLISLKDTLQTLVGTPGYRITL

[17] = target: Eukaryotic translation initiation factor 4E (Mus musculus, UniProt P63073); test: eIF4E–eIF4G protein interaction inhibitors, dose response, biochemical, TR-FRET (AID 855); type: functional;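 note: potency for disrupting eIF4E binding to eIF4GI seen as loss of FRET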
Chain of Eukaryotic translation initiation factor 4E (P63073 whole entry): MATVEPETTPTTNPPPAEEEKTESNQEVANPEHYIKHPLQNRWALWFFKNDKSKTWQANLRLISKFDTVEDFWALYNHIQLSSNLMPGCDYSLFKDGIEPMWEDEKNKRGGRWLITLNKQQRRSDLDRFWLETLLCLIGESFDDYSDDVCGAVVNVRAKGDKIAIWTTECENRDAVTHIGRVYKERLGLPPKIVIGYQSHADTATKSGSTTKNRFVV

[18] = target: DNA dC->dU-editing enzyme APOBEC-3A (Homo sapiens, UniProt P31941); test: Dose Response confirmation of small molecule APOBEC3A DNA Deaminase Inhibitors via a fluorescence-based single-stranded DNA deaminase assay. [Related pubchem assays (depositor defined):AID493011, AID493024]; type: functional
Chain of DNA dC->dU-editing enzyme APOBEC-3A (P31941 whole entry): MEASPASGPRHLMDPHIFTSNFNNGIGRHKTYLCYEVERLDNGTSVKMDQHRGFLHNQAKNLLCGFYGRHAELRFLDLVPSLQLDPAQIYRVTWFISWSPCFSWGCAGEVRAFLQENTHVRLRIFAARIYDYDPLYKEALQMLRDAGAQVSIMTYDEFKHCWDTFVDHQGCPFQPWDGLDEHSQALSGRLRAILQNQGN

[19] = target: DNA dC->dU-editing enzyme APOBEC-3G (Homo sapiens, UniProt Q9HC16); type: functional;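 note: Dose-response counterscreen measuring inhibition of APOBEC3G DNA deaminase activity, run while confirming APOBEC3A inhibitors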
Chain of DNA dC->dU-editing enzyme APOBEC-3G (Q9HC16 whole entry): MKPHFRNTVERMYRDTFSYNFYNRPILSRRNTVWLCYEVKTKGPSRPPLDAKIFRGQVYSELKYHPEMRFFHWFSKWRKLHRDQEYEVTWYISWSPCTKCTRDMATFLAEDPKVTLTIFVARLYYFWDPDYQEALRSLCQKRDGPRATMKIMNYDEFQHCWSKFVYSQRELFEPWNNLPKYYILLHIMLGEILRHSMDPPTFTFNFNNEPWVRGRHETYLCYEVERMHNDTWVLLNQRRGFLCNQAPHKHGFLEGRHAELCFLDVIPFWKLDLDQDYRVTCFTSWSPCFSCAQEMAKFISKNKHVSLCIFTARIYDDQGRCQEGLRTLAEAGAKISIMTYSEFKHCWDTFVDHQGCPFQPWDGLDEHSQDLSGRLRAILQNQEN

[20] = target: T6, fMet-Leu-Phe receptor (Homo sapiens, UniProt P21462); test: FPR ligands, dose response (AID 519); type: functional
T6 sequence (P21462 whole entry): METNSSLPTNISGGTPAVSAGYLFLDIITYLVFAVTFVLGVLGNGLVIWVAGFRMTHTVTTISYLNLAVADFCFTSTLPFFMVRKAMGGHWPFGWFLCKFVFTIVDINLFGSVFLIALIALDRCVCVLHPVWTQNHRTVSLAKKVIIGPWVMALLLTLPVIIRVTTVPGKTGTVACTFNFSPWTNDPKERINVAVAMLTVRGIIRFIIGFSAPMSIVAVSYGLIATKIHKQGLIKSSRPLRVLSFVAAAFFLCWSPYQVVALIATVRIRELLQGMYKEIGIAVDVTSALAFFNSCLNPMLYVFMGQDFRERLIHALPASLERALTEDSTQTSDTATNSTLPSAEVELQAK

[21] = cells; type: functional

## CCN1CCN(C(=S)c2ccc(O)c(OC)c2)CC1
[1]
  IC50: > 100 µM (inactive)
[2]
  IC50: 74.5 µM (active)

## CCN1CCN(Cc2cc(Br)ccc2O)CC1
[3]
  EC50: 0.21 µM (active)

## CN(C)/C=C/C=C/C=C/C1=[N+](C)c2ccccc2C1(C)C
[4]
  EC50: 89.5 µM (inactive)
[5]
  IC50: 1.82 µM (active)
[6]
  IC50: 5.75 µM (active)
[7]
  IC50: 2.05 µM (active)
[8]
  IC50: 27.8 µM (active)
[9]
  EC50: > 99 µM (inactive)

## Cc1c(CSc2nnc(-c3ccccn3)n2Cc2cccs2)cccc1[N+](=O)[O-]
[10]
  EC50: > 32 µM (inactive)
[11]
  EC50: 4.15 µM (active)
[12]
  EC50: 5.82 µM (active)
[13]
  EC50: > 32 µM (inactive)

## Cc1cccc(Cn2c(N3CCN(c4ccccc4)CC3)nc3c2c(=O)n(C)c(=O)n3C)c1
[14]
  CC50: > 40 µM (active)
[3]
  EC50: 0.84 µM (active)

## COc1ccc2cc(C(=O)C3CCCN(C(=O)CCc4cnn(C)c4)C3)ccc2c1 (stereo not drawn)
[15]
  AC50: 11.5 µM (active)
[16]
  AC50: 19.5 µM (active)

## O=C(C[n+]1c2n(c3ccc(C(F)(F)F)cc31)CCCCC2)Nc1ccccc1
[17]
  IC50: > 64 µM (inactive)
[18]
  IC50: 2.76 µM (active)
[19]
  IC50: 3.79 µM (active)

## CCCc1cc(O)n2nc(C)c(-c3ccccc3)c2n1
[20]
  Ki: > 66.7 µM (inactive)
[21]
  IC50: 46.5 µM (active)
[15]
  AC50: 5.36 µM (active)
[16]
  AC50: 22.3 µM (active)

## Cc1ccccc1CSc1nnc(-c2ccccn2)n1Cc1ccco1
[10]
  EC50: > 32 µM (inactive)
[11]
  EC50: 28.7 µM (inactive)
[12]
  EC50: 17.7 µM (inactive)
[13]
  EC50: > 64 µM (inactive)
